Data set [1] deals with T1, A2A adenosine receptor (Homo sapiens, UniProt P29274).
T1 construct: purchased PerkinElmer Research Products (Boston, Mass.); host or cells: HEK-293 cells, stably transfected; membrane preparation
Description: Radioligand binding test ([3H]CGS21680 displacement, hA2A HEK-293 cell membrane). The following applies: calculated from IC50 by Cheng and Prusoff equation; [3H]CGS21680 25 nM, Km 22 nM; 25° C., 90 minutes. Here is the method: [3H]CGS21680 (2-[p-(2-carboxyethyl)phenylethylamino]-5′-N-ethylformamidoadenosine, [carboxy-1-ethyl-3H(N)]; 250 μCi) was purchased from PerkinElmer Research Products (Boston, Mass.).
Cell membrane stably transfected with (human) A2A adenosine receptor was prepared in HEK-293 cells. The cell membrane was obtained from PerkinElmer Research Products (Boston, Mass.).
CGS21680 (2-[p-(2-carboxyethyl)phenylethylamino]-5′-N-ethylformamidoadenosine) was purchased from Selleck (Shanghai, CN).
The A2A adenosine receptors used were all expressed in the cell membrane. […] The specific binding percentage of [3H]CGS21680 was calculated according to the CPM value, % specific binding of [3H]CGS21680=(CPMsample−CPMLow Control)/(CPMHigh Control−CPMLow Control)*100, in which
High Control was 0.5% DMSO, Low Control was 100 μM CGS21680. The IC50 value was calculated based on the compound concentration and the specific binding percentage of [3H]CGS21680 by curve fitting.
The inhibition constant (Ki) value was calculated from the IC50 value according to the Cheng and Prusoff equation, Ki=IC50/(1+[S]/Km), in which [S] was the concentration of the radioligand (25 nM), and Km was the human A2AAR dissociation constant (22 nM) of [3H]CGS21680. The inhibition constant Ki values for Compounds 1 to 20 of the present invention binding to A2A adenosine receptor were shown in Table 1.

T1 sequence (P29274 whole entry): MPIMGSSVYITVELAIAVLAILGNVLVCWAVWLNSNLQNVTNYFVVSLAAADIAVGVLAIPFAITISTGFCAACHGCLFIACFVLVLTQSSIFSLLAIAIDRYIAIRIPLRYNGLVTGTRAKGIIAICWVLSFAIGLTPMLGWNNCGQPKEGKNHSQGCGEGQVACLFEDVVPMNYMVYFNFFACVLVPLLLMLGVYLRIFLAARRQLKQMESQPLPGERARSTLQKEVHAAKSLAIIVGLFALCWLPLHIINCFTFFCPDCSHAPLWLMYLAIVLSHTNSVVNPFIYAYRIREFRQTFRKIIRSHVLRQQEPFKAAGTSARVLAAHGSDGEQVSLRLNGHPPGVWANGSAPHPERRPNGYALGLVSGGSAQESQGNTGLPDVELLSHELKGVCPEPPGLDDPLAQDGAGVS

With `OC[C@H]1O[C@@H](n2cnc3c(N/N=C/c4ccc[nH]4)ncnc32)[C@H](O)[C@@H]1O` [Compound 1, (2R,3R,4S,5R)-2-{6-{2-[(E)-(1H-pyrrol-2-yl)methylene]hydrazino}-9H-purin-9-yl}-5-(hydroxymethyl)tetrahydrofuran-3,4-diol], the melting point was found to be 160 °C. In data set [1], the Ki is 945 nM.
`CSCC/C=N/Nc1ncnc2c1ncn2[C@@H]1O[C@H](CO)C(O)C1O` (stereo partly drawn) [Compound 2, (2R,3S,4R,5R)-2-(hydroxymethyl)-5-{6-{2-[(E)-3-(methylthio)propylene]hydrazino}-9H-purin-9-yl}tetrahydrofuran-3,4-diol] came in with a melting point of 94 °C. Besides, the inhibition constant (Ki) in data set [1] was 2150 nM.
Take `CC(=O)Nc1ccc(/C=N/Nc2ncnc3c2ncn3[C@@H]2O[C@H](CO)C(O)C2O)cc1` (stereo partly drawn) [Compound 3, N-{4-{(E)-{2-{9-[(2R,3R,4S,5R)-3,4-dihydroxy-5-(hydroxymethyl)tetrahydrofuran-2-yl]-9H-purin-6-yl}hydrazino}methyl}phenyl}acetamide]: the melting point turned out to be 170 °C. Moreover, the Ki in data set [1] is 3.6 nM.
In the same order, the values of `OC[C@H]1O[C@@H](n2cnc3c(N/N=C/c4ccc(OCc5ccccc5)c(OCc5ccccc5)c4)ncnc32)C(O)C1O` (stereo partly drawn) [Compound 4] are 186 °C and more than 10000 nM.
The like results for `OC[C@H]1O[C@@H](n2cnc3c(N/N=C/c4ccc(C(F)(F)F)cc4C(F)(F)F)ncnc32)[C@H](O)[C@@H]1O` [Compound 6, (2R,3R,4S,5R)-2-{6-{2-[(E)-2,4-bis(trifluoromethyl)benzylidene]hydrazino}-9H-purin-9-yl}-5-(hydroxymethyl)tetrahydrofuran-3,4-diol] were, in that order, 200 °C and 1.2 nM.
Molecule `OC[C@H]1O[C@@H](n2cnc3c(N/N=C/c4cccc(OCc5ccccc5)c4)ncnc32)[C@H](O)[C@@H]1O` [Compound 8, (2R,3R,4S,5R)-2-{6-{2-[(E)-3-(benzyloxy)benzylidene]hydrazino}-9H-purin-9-yl}-5-(hydroxymethyl)tetrahydrofuran-3,4-diol] gave a melting point of 140 °C. Also, the Ki in data set [1] is 236 nM.
The molecule `OC[C@H]1O[C@@H](n2cnc3c(N/N=C/c4ccc(-c5ccccn5)cc4)ncnc32)[C@H](O)[C@@H]1O` [Compound 9, (2R,3S,4R,5R)-2-(hydroxymethyl)-5-{6-{2-[(E)-4-(pyridin-2-yl)benzylidene]hydrazino}-9H-purin-9-yl}tetrahydrofuran-3,4-diol] showed a melting point of 236 °C. Moreover, the Ki in data set [1] was 4590 nM.
`OC[C@H]1O[C@@H](n2cnc3c(N/N=C/c4ccc(-c5ccccc5)cc4)ncnc32)C(O)C1O` (stereo partly drawn) [Compound 10] showed a melting point of 170 °C. Also, the Ki in data set [1] is 1900 nM.
In the same order, the values of `OC[C@H]1O[C@@H](n2cnc3c(N/N=C/c4ccc(N5CCCC5)cc4)ncnc32)[C@H](O)[C@@H]1O` [Compound 11, (2R,3S,4R,5R)-2-(hydroxymethyl)-5-{6-{2-[(E)-4-(pyrrolidin-1-yl)benzylidene]hydrazino}-9H-purin-9-yl}tetrahydrofuran-3,4-diol] are 202 °C and 2 nM.
In the same order, the values of `OC[C@H]1O[C@@H](n2cnc3c(N/N=C/c4ccc(-n5ccnc5)cc4)ncnc32)[C@H](O)[C@@H]1O` [Compound 12, (2R,3R,4S,5R)-2-{6-{2-[(E)-4-(1H-imidazol-1-yl)benzylidene]hydrazino}-9H-purin-9-yl}-5(hydroxymethyl)tetrahydrofuran-3,4-diol] are 222 °C and 15.4 nM.
In the same order, the values of `CCCOc1ccc(/C=N/Nc2ncnc3c2ncn3[C@@H]2O[C@H](CO)[C@@H](O)[C@H]2O)cc1` [Compound 13, (2R,3S,4R,5R)-2-(hydroxymethyl)-5-{6-{2-[(E)-4-propoxybenzylidene]hydrazino}-9H-purin-9-yl}tetrahydrofuran-3,4-diol] are 202 °C and 4470 nM.
`OC[C@H]1O[C@@H](n2cnc3c(N/N=C/c4ccc(C(F)(F)F)cc4)ncnc32)[C@H](O)[C@@H]1O` [Compound 14, (2R,3S,4R,5R)-2-(hydroxymethyl)-5-{6-{2-[(E)-4-(trifluoromethyl)benzylidene]hydrazino}-9H-purin-9-yl}tetrahydrofuran-3,4-diol] yielded a melting point of 182 °C. Also, in data set [1], the inhibition constant Ki was 520 nM.
The molecule `CN(C)c1ccc(/C=C/C=N/Nc2ncnc3c2ncn3[C@@H]2O[C@H](CO)[C@@H](O)[C@H]2O)cc1` [Compound 17, (2R,3R,4S,5R)-2-{6-{2-{(1E,2E)-3-[4-(dimethylamino)phenyl]allylidene}hydrazino}-9H-purin-9-yl}-5-(hydroxymethyl)tetrahydrofuran-3,4-diol] showed a melting point of 172 °C. In data set [1], the inhibition constant (Ki) is 1.4 nM.
`OC[C@H]1O[C@@H](n2cnc3c(N/N=C/c4ccc(Cl)c(C(F)(F)F)c4)ncnc32)C(O)C1O` (stereo partly drawn) [Compound 18]: the melting point is 196 °C. Further, the inhibition constant Ki in data set [1] is 1470 nM.
The like results for `OC[C@H]1O[C@@H](n2cnc3c(N/N=C/c4ccc(N(c5ccccc5)c5ccccc5)cc4)ncnc32)C(O)C1O` (stereo partly drawn) [Compound 19] were, in that order, 160 °C and 5580 nM.
As for `CCCCc1nc(/C=N/Nc2ncnc3c2ncn3[C@@H]2O[C@H](CO)[C@@H](O)[C@H]2O)c(Cl)[nH]1` [Compound 20, (2R,3R,4S,5R)-2-{6-{2-[(E)-(2-butyl-5-chloro-1H-imidazol-4-yl)methylene]hydrazino}-9H-purin-9-yl}-5-(hydroxymethyl)tetrahydrofuran-3,4-diol], the melting point was determined as 178 °C. Further, in data set [1], the inhibitory constant (Ki) was 998 nM.
In the same order, the values of `CCCCC/C=C/C=C/C=N/Nc1ncnc2c1ncn2[C@@H]1O[C@H](CO)[C@@H](O)[C@H]1O` [Compound 21, (2R,3R,4S,5R)-2-{6-{2-[(1E,2E,4E)-deca-2,4-dien-1-ylidene]hydrazino}-9H-purin-9-yl}-5(hydroxymethyl)tetrahydrofuran-3,4-diol] are 178 °C and 1.2 nM.
As to `OC[C@H]1O[C@@H](n2cnc3c(N/N=C/C4CCCCC4)ncnc32)[C@H](O)[C@@H]1O` [Compound 22, (2R,3R,4S,5R)-2-{6-{2-[(E)-cyclohexylmethylene]hydrazino}-9H-purin-9-yl}-5-(hydroxylmethyl)tetrahydrofuran-3,4diol], the melting point was 132 °C. Also, in data set [1], the Ki is 86.6 nM.

The values are drawn from patent US20220380402A1, “6-HYDRAZINOADENOSINE COMPOUNDS WITH A2A ADENOSINE RECEPTOR AGONIST ACTIVITY” (ACADEMY OF MILITARY MEDICAL SCIENCES, priority 2019, published 2022).
